pKi: −log10 of the molar value.
What was measured:
[1] = biological target: T1, 5-hydroxytryptamine receptor 1B (Homo sapiens, UniProt P28222); test: Intrinsic activity at human cloned 5HT1B receptor expressed in CHO cells; type: cell-based
[2] = biological target: T2, 5-hydroxytryptamine receptor 1A (Homo sapiens) (UniProt P08908); test: Intrinsic activity at human cloned 5HT1A receptor expressed in CHO cells; type: cell-based
T2 sequence (whole entry): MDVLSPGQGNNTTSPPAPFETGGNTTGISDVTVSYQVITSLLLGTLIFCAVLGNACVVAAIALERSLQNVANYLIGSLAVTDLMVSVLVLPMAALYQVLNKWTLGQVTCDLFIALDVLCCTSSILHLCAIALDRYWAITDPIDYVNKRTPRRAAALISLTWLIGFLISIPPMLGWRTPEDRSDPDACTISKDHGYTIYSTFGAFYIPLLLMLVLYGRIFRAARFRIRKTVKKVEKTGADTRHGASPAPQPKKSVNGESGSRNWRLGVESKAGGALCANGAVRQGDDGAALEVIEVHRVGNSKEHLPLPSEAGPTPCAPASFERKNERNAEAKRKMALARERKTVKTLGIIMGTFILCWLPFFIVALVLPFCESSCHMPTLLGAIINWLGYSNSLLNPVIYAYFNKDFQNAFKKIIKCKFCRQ

[3] = biological target: T3, 5-hydroxytryptamine receptor 1D (Homo sapiens, UniProt P28221); test: Intrinsic activity at human cloned 5HT1D receptor expressed in CHO cells; type: cell-based
[4] = biological target: Sodium-dependent serotonin transporter (Rattus norvegicus, UniProt P31652); test: Inhibition of [3H]5HT reuptake at SERT in rat cortical synaptosomes; type: subcellular, Brain
[5] = biological target: T1, 5-hydroxytryptamine receptor 1B; test: Displacement of [3H]5HT from human cloned 5HT1B receptor expressed in CHO cells; type: cell-based
[6] = biological target: T3, 5-hydroxytryptamine receptor 1D; test: Displacement of [3H]5HT from human cloned 5HT1D receptor expressed in CHO cells; type: cell-based
[7] = biological target: T4, 5-hydroxytryptamine receptor 1A (Homo sapiens, UniProt P08908); test: Displacement of [3H]5HT from human cloned 5HT1A receptor expressed in CHO cells; type: cell-based
T4 sequence (P08908 whole entry): T2 sequence (whole entry)

[8] = Oral bioavailability in rat at 3 mg/kg; type: ADME, organism-based; conditions: in vivo
[9] = Cmax in rat at 3 mg/kg, po; type: ADME, organism-based; set-up: dose 3 mg/kg, route oral; conditions: in vivo
[10] = Clearance in rat at 3 mg/kg, po; type: ADME, organism-based; set-up: dose 3 mg/kg, route oral; conditions: in vivo

Chain of Sodium-dependent serotonin transporter (P31652 whole entry): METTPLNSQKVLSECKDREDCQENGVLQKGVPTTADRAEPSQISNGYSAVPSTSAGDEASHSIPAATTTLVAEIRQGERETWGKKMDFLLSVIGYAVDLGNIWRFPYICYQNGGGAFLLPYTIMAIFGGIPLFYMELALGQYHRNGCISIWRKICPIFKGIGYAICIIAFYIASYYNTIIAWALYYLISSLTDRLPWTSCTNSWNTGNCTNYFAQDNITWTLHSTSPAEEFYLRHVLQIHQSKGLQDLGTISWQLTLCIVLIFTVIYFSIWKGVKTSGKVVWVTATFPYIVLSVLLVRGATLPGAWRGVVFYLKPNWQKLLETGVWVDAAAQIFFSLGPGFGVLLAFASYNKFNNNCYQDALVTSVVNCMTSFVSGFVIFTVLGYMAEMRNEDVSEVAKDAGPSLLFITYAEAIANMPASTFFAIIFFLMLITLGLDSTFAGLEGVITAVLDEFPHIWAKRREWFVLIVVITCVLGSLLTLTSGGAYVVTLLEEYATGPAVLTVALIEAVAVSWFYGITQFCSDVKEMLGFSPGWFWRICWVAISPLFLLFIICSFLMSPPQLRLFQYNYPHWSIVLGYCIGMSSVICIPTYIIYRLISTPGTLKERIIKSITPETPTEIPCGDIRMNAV
T3 sequence (P28221 whole entry): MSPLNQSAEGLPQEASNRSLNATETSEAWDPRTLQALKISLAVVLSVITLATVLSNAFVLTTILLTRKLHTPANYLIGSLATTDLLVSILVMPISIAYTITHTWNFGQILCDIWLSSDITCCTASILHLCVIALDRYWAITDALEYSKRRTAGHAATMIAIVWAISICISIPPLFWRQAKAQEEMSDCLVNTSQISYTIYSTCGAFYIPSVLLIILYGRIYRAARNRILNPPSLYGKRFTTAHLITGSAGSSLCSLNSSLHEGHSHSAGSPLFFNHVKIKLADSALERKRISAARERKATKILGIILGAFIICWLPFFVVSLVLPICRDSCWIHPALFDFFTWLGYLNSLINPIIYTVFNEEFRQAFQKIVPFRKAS
T1 sequence (P28222 whole entry): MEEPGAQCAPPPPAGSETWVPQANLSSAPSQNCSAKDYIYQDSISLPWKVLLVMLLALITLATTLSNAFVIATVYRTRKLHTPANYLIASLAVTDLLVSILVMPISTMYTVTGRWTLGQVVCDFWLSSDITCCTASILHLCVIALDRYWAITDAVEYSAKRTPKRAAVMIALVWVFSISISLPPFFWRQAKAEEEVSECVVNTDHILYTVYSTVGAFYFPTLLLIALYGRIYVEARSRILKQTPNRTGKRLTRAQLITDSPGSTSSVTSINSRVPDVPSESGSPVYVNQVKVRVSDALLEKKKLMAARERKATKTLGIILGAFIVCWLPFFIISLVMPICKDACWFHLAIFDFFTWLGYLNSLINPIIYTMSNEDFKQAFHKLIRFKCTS

| pKi [4] | pKi [5] | pKi [6] | pKi [7] | Structure (SMILES) | further results |
| --- | --- | --- | --- | --- | --- |
|  |  |  |  | Cc1ccc2c(OCCN3CCC(Cc4ccc5c(c4)NC(=O)CO5)CC3)cccc2n1 | Intrinsic activity [1]: 0.5; Intrinsic activity [2]: 0.1; Intrinsic activity [3]: 0.5 |
| 7.20 | 7.30 | 8.10 | 7.30 | Cc1ccc2c(OCCN3CC(COc4ccc5c(c4)NC(=O)CO5)C3)cccc2n1 | Intrinsic activity [1]: 0.5; Intrinsic activity [2]: 0.3; Intrinsic activity [3]: 0.5 |
| 6.10 | 6.20 | 6.60 | 6.30 | Cc1ccc2c(OCC3CCN(CC(=O)c4ccc5c(c4)NC(=O)CO5)CC3)cccc2n1 |  |
| 6.60 | 6.70 | 7.10 | 6.40 | Cc1ccc2c(OC(C)CN3CCC(Cc4ccc5c(c4)NC(=O)CO5)CC3)cccc2n1 (racemic) |  |
|  | 7.00 | 6.30 | 7.00 | Cc1ccc2c(OCC(C)N3CCC(Cc4ccc5c(c4)NC(=O)CO5)CC3)cccc2n1 (single isomer, unassigned; enantiomer II) |  |
|  |  |  | < 5.80 | Cc1ccc2c(OCC3CCN(Cc4ccc5c(c4)NC(=O)CO5)CC3)cccc2n1 |  |
| 6.10 | < 5.00 | 6.90 | 6.20 | Cc1ccc2c(N3CCN(Cc4ccc5c(c4)NC(=O)CO5)CC3)cccc2n1 |  |
|  | 6.50 | 6.80 | 7.10 | Cc1ccc2c(OCCCN3CC(COc4ccc5c(c4)NC(=O)CO5)C3)cccc2n1 |  |
|  |  |  |  | Cc1ccc2c(N3CCN(CCCc4ccc5c(c4)NC(=O)CO5)CC3)cccc2n1 | Intrinsic activity [2]: 0 |
| 6.70 | < 5.60 | 5.90 | < 5.00 | Cc1ccc2c(OC3CCN(Cc4ccc5c(c4)NC(=O)CO5)CC3)cccc2n1 |  |
|  | 7.40 | 6.60 | 7.30 | Cc1ccc2c(OCC(C)N3CCC(Cc4ccc5c(c4)NC(=O)CO5)CC3)cccc2n1 (single isomer, unassigned; enantiomer I) |  |
|  |  |  | 6.80 | Cc1ccc2c(OCCCN3CC(Oc4ccc5c(c4)NC(=O)CO5)C3)cccc2n1 |  |
|  |  |  |  | Cc1ccc2c(N3CCN(CCc4ccc5c(c4)NC(=O)CO5)CC3)cccc2n1 | bioavailability [8]: 72%; Intrinsic activity [1]: 0.1; Cmax [9]: 360 ng/mL; CL/F [10]: 7 mL/min/kg; Intrinsic activity [2]: 0.2 |
| 7.00 | 7.60 | 8.20 | 6.50 | Cc1ccc2c(OC3CCN(CCc4ccc5c(c4)NC(=O)CO5)CC3)cccc2n1 |  |

| Structure (SMILES) | pKi [4] | pKi [5] | pKi [6] | pKi [7] | further results |
| --- | --- | --- | --- | --- | --- |
| Cc1ccc2c(OC3CCN(CC(=O)c4ccc5c(c4)NC(=O)CO5)CC3)cccc2n1 |  | < 5.30 | 5.70 | < 5.00 |  |

From ChEMBL document CHEMBL1142481, “Novel 5-HT(1A/1B/1D) receptors antagonists with potent 5-HT reuptake inhibitory activity” (Bioorg Med Chem Lett, 2008)
